The test system of one experiment is ER alpha glucosidases. Conditions: cited from earlier work.
For a further experiment, the system named is obese mice. Conditions: cited from earlier work.
The subject of a further experiment is Huh7.5 cells. Kind of experiment: "Total lipid" fatty acid profiling (GCMS) of hepatoma cells treated with iminosugars. The experiment is classed as cell-based, human. The settings on record: uninfected state, antiviral concentrations, 4 days. The protocol: Methods for cell culture of replication-competent HCV in human hepatoma cells were essentially as described (Pollock, Nichita et al. 2010). Huh7.5 cells (Apath, LLC) were grown in DMEM supplemented with 100 U/ml penicillin, 100 μg/ml streptomycin, 2 mM L-glutamine, 1×MEM, and 10% FBS. All incubations were at 37° C./5% CO2. The effect of iminosugar treatment on cellular lipid profiles was determined for both uninfected and HCVcc-infected cells. In order to infect cells with HCV strain Jc1 (genotype 2a), Huh7.5 cells were incubated for 1 h in the presence of the virus at a multiplicity of infection (MOI)=0.02 using a viral stock of known titer. Cells were passaged for approximately 2 weeks to allow the infection to reach close to 100% of cells as determined by HCV core protein immunofluorescence, in order to avoid dilution of ‘infected’ lipidomic signatures by uninfected cells in partially infected cultures. Both HCV-infected and uninfected cells were then incubated in the presence or absence of iminosugars for 4 days, at which point they were harvested using trypsin/EDTA, washed 3 times in cold PBS, counted using trypan blue staining, and final cell pellets were resuspended in methanol:acetone (vol 1:1) prior to lipid profiling, A small volume of each sample was used for total protein estimation using the Bradford protein assay (Bio-Rad). […]

In another experiment the test system is PI3 kinase. The settings on record: cited from earlier work.

The text below walks through data of patent publication US20160061849A1, “LIPIDOMIC BIOMARKERS” (UNITHER VIROLOGY, LLC, priority 2014, published 2016).

Each structure is given as a SMILES string.

In the case of `CCCCN1C[C@H](O)[C@@H](O)[C@H](O)[C@H]1CO` [NB-DNJ, N-butyl-deoxynojirimycin], in the experiment on ER alpha glucosidases, the “inhibitory activity towards ER alpha glucosidases” value is “also inhibits glucosidase”.

With `OC[C@@H]1[C@@H](O)[C@H](O)[C@@H](O)CN1CCCCCOCC12CC3CC(CC(C3)C1)C2` [AMP-DNJ, N-(5-adamantane-1-yl-methoxy-pentyl)-deoxynojirimycin], in the experiment with obese mice, the “fatty acid synthase activity” value is given as “decreases fatty acid synthase activity”, the hepatic insulin sensitivity result was “improves hepatic insulin sensitivity” and the hepatic steatosis result is on record as “abolishes hepatic steatosis”. In addition, the “Mead acid component of the global fatty acid composition” value in the experiment on Huh7.5 cells was “almost doubled”. `CCCCN1C[C@H](O)[C@@H](O)[C@@H](O)[C@H]1CO` [NB-DGJ, N—(N-butyl) deoxygalactojirimycin]: in the experiment with ER alpha glucosidases, the “inhibitory activity towards ER alpha glucosidases” value is listed as “no inhibitory activity”.

In the case of `CCCCC/C=C\C/C=C\C/C=C\C/C=C\CCCC(=O)O` [arachidonic acid], the “activation of PI3 kinase by insulin” value in the experiment with PI3 kinase is reported as “blocks the activation”.
